Experiment [1] concerns the target T1, P2X7 (Homo sapiens, UniProt Q99572).
T1 sequence (Q99572 1-595): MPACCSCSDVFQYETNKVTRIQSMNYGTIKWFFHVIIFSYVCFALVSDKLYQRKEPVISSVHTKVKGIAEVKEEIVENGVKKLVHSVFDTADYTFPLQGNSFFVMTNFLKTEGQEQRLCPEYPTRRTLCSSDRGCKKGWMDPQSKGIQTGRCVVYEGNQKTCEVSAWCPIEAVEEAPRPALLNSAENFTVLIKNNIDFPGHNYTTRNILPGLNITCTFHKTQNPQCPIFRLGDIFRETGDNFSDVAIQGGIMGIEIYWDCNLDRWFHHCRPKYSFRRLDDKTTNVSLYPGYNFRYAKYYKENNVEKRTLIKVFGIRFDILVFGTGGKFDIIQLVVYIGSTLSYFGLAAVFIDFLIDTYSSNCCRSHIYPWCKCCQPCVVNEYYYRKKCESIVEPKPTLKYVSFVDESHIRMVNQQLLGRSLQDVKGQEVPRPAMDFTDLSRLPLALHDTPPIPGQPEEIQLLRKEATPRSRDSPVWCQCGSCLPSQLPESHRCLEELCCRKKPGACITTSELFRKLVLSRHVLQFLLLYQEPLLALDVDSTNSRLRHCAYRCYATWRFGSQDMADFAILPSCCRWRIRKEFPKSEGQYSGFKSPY
Put plainly: Ca2+ flux (FLIPR) in 1321N1 cells expressing recombinant human P2X7 channel. The experiment is classed as cell-based. Also noted: expressed in transfected cells; host or cells: 1321N1 cells. The following applies: 250 μM BzATP. The procedure, abridged:
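1321N1 cells expressing recombinant human P2X7, loaded 60 min with Calcium-4 dye in HEPES buffer pH 7.40 (1 mM CaCl2, 1 mM MgCl2), preincubated 30 min with compounds. Fluorescence change recorded 180 seconds after agonist addition.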
Background: A change in cytosolic calcium serves as a functional read-out for many receptors and channels.

Experiment [2] has as its target T2, rat P2X7 (Rattus norvegicus, UniProt Q64663).
T2 sequence (Q64663 1-595): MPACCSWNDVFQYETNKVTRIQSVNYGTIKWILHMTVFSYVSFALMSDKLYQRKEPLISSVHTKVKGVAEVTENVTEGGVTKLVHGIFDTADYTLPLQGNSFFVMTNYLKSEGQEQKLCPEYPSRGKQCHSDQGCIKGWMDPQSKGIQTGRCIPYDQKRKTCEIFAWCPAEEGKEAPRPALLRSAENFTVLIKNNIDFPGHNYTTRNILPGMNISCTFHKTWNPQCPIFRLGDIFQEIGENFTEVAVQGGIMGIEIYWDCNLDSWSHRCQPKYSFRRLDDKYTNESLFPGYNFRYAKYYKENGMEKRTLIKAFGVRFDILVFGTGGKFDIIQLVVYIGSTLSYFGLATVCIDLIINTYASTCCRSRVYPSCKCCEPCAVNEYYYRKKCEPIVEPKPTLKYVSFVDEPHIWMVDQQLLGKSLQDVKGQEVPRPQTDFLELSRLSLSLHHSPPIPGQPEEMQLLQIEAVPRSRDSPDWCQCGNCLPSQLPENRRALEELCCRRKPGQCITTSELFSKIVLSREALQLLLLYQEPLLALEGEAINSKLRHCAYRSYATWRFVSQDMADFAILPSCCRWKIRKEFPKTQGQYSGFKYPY
Put plainly: Radioligand binding, rat P2X7-1321N1 cell membranes, tritiated A-804598.
From the text: (§3) P2X7 Antagonism in Recombinant Human P2X7 Cells or Recombinant Rat P2X7 Cells: (a) Ca^2+ Flux and (b) Radioligand Binding

In experiment [3] the target is T1, P2X7. Put plainly: Radioligand binding, human P2X7-1321N1 cell membranes, tritiated A-804598.
From the text: as §3
For experiment [4], the target named is T2, rat P2X7. The experiment can be described thus: Ca2+ flux (FLIPR) in 1321N1 cells expressing recombinant rat P2X7 channel. The settings on record: FLIPR (rat) IC50 (μM), 250 μM BzATP.
Method: as §3
(a) Ca^2+ flux: 1321N1 cells expressing the recombinant human or rat P2X7 channel was cultured in HyQ DME/(HyClone/Dulbecco's Modified Eagle Medium) high glucose supplemented with 10% Fetal Bovine Serum (FBS) and appropriate selection marker. Cells were seeded at a density of 25000 cells/well (96-well clear bottom black walled plates) in 100 μl volume/well. On the day of the experiment, cell plates were washed with assay buffer, containing (in mM): 130 NaCl, 2 KCl, 1 CaCl2), 1 MgCl2, 10 HEPES, 5 glucose; pH 7.40 and 300 mOs. After the wash, cells were loaded with the Calcium-4 dye (Molecular Device) and incubated in the dark for 60 minutes. Test compounds were prepared at 250× the test concentration in neat DMSO. Intermediate 96-well compound plates were prepared by transferring 1.2 μL of the compound into 300 μL of assay buffer. A further 3× dilution occurred when transferring 50 μL/well of the compound plate to 100 μL/well in the cell plate. Cells were incubated with test compounds and dye for 30 minutes. […] The fluorescence change was measured 180 seconds after adding the agonist.
The target of experiment [5] is T1, P2X7. Put plainly: P2X7 antagonism in human whole blood (IL-1β release, ELISA). It counts as cell-based. Set-up: PBMCs were isolated from blood using a Ficoll density gradient technique; endogenous in cells; host or cells: human PBMCs / human whole blood from donors. The following applies: LPS 30 ng/ml + 1 mM Bz-ATP. On the procedure:
(§1) P2X7 Antagonism in Human Peripheral Blood Mononuclear Cells (PBMCs) and Human Whole Blood.
(§2) Human blood was collected using a blood donor program. PBMCs were isolated from blood using a Ficoll density gradient technique. Briefly, blood was laid on Ficoll solution and centrifuged at RT for 20 minutes at 2000 rpm. The buffy layer (between red blood cells and plasma) was carefully collected by aspiration, washed with PBS and centrifuged again at 1500 rpm for 15 minutes. The resulting cell pellet was washed and plated on 96 well-plates for experiments. For the Human Whole Blood experiments, 150 μl of human blood was platted on 96 well-plates. Lipopolysaccharide (LPS) (30 ng/ml) was added to each well and incubated for 1 hour. Test compounds were then added and incubated for 30 minutes. The P2X7 agonist, 2′(3′)-O-(4-benzoylbenzoyl) adenosine 5′ triphosphate (Bz-ATP) was then added at a final concentration of 0.5 mM (PBMC) or 1 mM (blood). Cells were incubated for an additional 1.5 hours. At that point, supernatant was collected and stored for IL-1β assay using manufacturer's protocol for enzyme-linked immunosorbent assay (ELISA). Data was expressed as percent control, where control is defined as the difference in IL-1β release in LPS+Bz-ATP samples and LPS only samples. Data was plotted as response (% control) versus concentration to generate IC50 values. […] Data are analyzed and graphed on Graphpad Prism 5. For analysis, each concentration point is averaged from triplicate values and the averaged values are plotted on Graphpad Prism. The IC50 for each compound is then uploaded into 3DX.

Experiment [6] deals with T1, P2X7. The experiment can be described thus: P2X7 antagonism in human PBMCs (IL-1β release, ELISA). The experiment is classed as cell-based. The settings on record: LPS 30 ng/ml + 0.5 mM Bz-ATP, compound 10 μM. Set-up: PBMCs were isolated from blood using a Ficoll density gradient technique; endogenous in cells; host or cells: human PBMCs / human whole blood from donors. The method, then: as §1, §2
For orientation: An ELISA detects its analyte on a solid surface through an enzyme-linked reagent.

SMILES strings stand for the structures.

The term IC50 denotes the concentration that inhibits the measured activity by half. The Ki is the equilibrium dissociation constant of an inhibitor or competing ligand from its target. As to `Cc1nnc2n1CCN(C(=O)c1cccc(C(F)(F)F)c1Cl)C2c1ccccc1` (racemic) [Example 53, (2-chloro-3-(trifluoromethyl)phenyl)(3-methyl-8-phenyl-5,6-dihydro-[1,2,4]triazolo[4,3-a]pyrazin-7(8H)-yl)methanone], the values for the IC50 at P2X7 [1], on rat P2X7 [4] and on P2X7 [5] were 2 nM, 0.0628 µM and 79 nM, respectively. Also, the inhibitory constant (Ki) at rat P2X7 [2] came to 39.8 nM; on P2X7 [3], 15.8 nM.

With `O=C(c1ccnc(C(F)(F)F)c1Cl)N1CCn2c(nnc2C(F)(F)F)C1c1ccccc1` (single isomer, unassigned) [Example 99, (R*)-(3-chloro-2-(trifluoromethyl)pyridin-4-yl)(8-phenyl-3-(trifluoromethyl)-5,6-dihydro-[1,2,4]triazolo[4,3-a]pyrazin-7(8H)-yl)methanone], the half-maximal inhibitory concentration (IC50) came to 9.1 nM on P2X7 [1] and 0.0348 µM on rat P2X7 [4]. The figures for the inhibition constant (Ki) on rat P2X7 [2] and at P2X7 [3] were 6.3 nM and 17.4 nM, respectively. Moreover, the “PBMC 10 μM (% control)” value on P2X7 [6] was found to be 4.9 % control.

On to `C[C@H]1Cn2c(nnc2-c2ccco2)CN1C(=O)c1cccc(C(F)(F)F)c1Cl` [Example 24, (S)-(2-chloro-3-(trifluoromethyl)phenyl)(3-(furan-2-yl)-6-methyl-5,6-dihydro-[1,2,4]triazolo[4,3-a]pyrazin-7(8H)-yl)methanone], for which the half-maximal inhibitory concentration (IC50) on P2X7 [1] amounted to 6.8 nM; at rat P2X7 [4], 0.0047 µM; at P2X7 [5], 25 nM. Also, the affinity at P2X7 [3], expressed as Ki, was 21.9 nM.

In the case of `C[C@H]1Cn2c(nnc2-c2cc(F)c(F)c(F)c2)CN1C(=O)c1cccc(C(F)(F)F)c1Cl` [Example 30, (S)-(2-chloro-3-(trifluoromethyl)phenyl)(6-methyl-3-(3,4,5-trifluorophenyl)-5,6-dihydro-[1,2,4]triazolo[4,3-a]pyrazin-7(8H)-yl)methanone], the values for the IC50 on P2X7 [1], at rat P2X7 [4] and at P2X7 [5] were 83.8 nM, 0.927 µM and 1590 nM, respectively. In addition, at P2X7 [3], the Ki was 50.1 nM.

Values taken from US12338243B2, “P2X7 modulators” (JANSSEN PHARMACEUTICA NV, priority 2014, dated 2025).
